The subject of assay [1] is MV4;11 cells. As to the kind of experiment: Cell viability assay (CellTiter-Glo) in MV4;11 cells, alone or with gilteritinib. It counts as cell-based. Conditions: Homo sapiens, MV4;11 cells, three days, CellTiter-Glo, read-out: MV4.
The test system of assay [2] is MOLM-13 cells. As to the kind of experiment: Cell viability assay (CellTiter-Glo) in MOLM-13 cells, alone or with gilteritinib. It counts as cell-based. Conditions: Homo sapiens, MOLM-13 cells, three days, CellTiter-Glo.
The mark [3] stands for this setting: MV4-11, 72 h, compound alone (without gilteritinib), 11 IC50.
Setting [4] is: MV4-11, 72 h, with gilteritinib 10 nM, 11 IC50 gilteritinib.
[5] abbreviates: MOLM-13, 72 h, compound alone (without gilteritinib), read-out: MOLM-13 IC50.
The mark [6] stands for this setting: MOLM-13, 72 h, with gilteritinib 20 nM, read-out: MOLM-13 IC50 gilteritinib.
The mark [7] stands for this setting: 72 h, compound alone (without gilteritinib), 11 IC50.
Where [8] appears, read: 72 h, with gilteritinib 10 nM, 11 IC50 gilteritinib.
Where [9] appears, read: 72 h, compound alone (without gilteritinib), read-out: MOLM-13 IC50.
Setting [10] is: 72 h, with gilteritinib 20 nM, read-out: MOLM-13 IC50 gilteritinib.

Where two headings read alike, the source gives them in different places.

With `O=C1CCC(N2C(=O)c3ccc(C4CN(CCCCn5cc(-c6cnc7ccccc7n6)cn5)C4)cc3C2=O)C(=O)N1` (stereo not drawn) [GS-364, 2-(2,6-Dioxopiperidin-3-yl)-5-(1-(4-(4-(quinoxalin-2-yl)-1H-pyrazol-1-yl)butyl)azetidin-3-yl)isoindoline-1,3-dione], the IC50 in assay [1] (setting [3]), in assay [1] (setting [4]), in assay [2] (setting [5]) and in assay [2] (setting [6]) was more than 1000 nM each time.
With `O=C1CCC(N2C(=O)c3ccc(NCCCc4cccc(-n5cc(-c6cnc7ccccc7n6)cn5)c4)cc3C2=O)C(=O)N1` (stereo not drawn) [GS-365, 2-(2,6-Ddioxopiperidin-3-yl)-5-((3-(3-(4-(quinoxalin-2-yl)-1H-pyrazol-1-yl)phenyl)propyl)amino)isoindoline-1,3-dione], the IC50 in assay [1] (setting [3]) is more than 1000 nM; in assay [1] (setting [4]), more than 1000 nM; in assay [2] (setting [5]), more than 1000 nM; in assay [2] (setting [6]) it was 100 to 1000 nM.
`O=C1CCC(N2C(=O)c3ccc(NCCNc4cccc(N5CCC(c6ccccc6)CC5)c4)cc3C2=O)C(=O)N1` (stereo not drawn) [GS-366, 2-(2,6-Dioxopiperidin-3-yl)-5-((2-((3-(4-phenylpiperidin-1-yl)phenyl)amino)ethyl)amino)isoindoline-1,3-dione]: the IC50 in assay [1] (setting [7]) was 10 to 100 nM; in assay [1] (setting [8]), less than 10 nM; in assay [2] (setting [9]), 10 to 100 nM; in assay [2] (setting [10]), less than 10 nM.
With `O=C1CCC(N2C(=O)c3ccc(N4CC(CCCCn5cc(-c6cnc7ccccc7n6)cn5)C4)cc3C2=O)C(=O)N1` (stereo not drawn) [GS-367, 2-(2,6-Dioxopiperidin-3-yl)-5-(3-(4-(4-(quinoxalin-2-yl)-1H-pyrazol-1-yl)butyl)azetidin-1-yl)isoindoline-1,3-dione], the IC50 in assay [1] (setting [3]), in assay [1] (setting [4]), in assay [2] (setting [5]) and in assay [2] (setting [6]) was more than 1000 nM in each case.
On to `O=C1CCC(N2C(=O)c3ccc(NCCCc4cccc(N5CCC(n6cc(-c7cnc8ccccc8n7)cn6)CC5)c4)cc3C2=O)C(=O)N1` (stereo not drawn) [GS-368, 2-(2,6-Dioxopiperidin-3-yl)-5-((3-(3-(4-(4-(quinoxalin-2-yl)-1H-pyrazol-1-yl)piperidin-1-yl)phenyl)propyl)amino)isoindoline-1,3-dione], for which the IC50 in assay [1] (setting [3]), in assay [1] (setting [4]), in assay [2] (setting [5]) and in assay [2] (setting [6]) was less than 10 nM in each case.
Turning to `O=C1CCC(N2C(=O)c3ccc(C#CCCCCn4cc(-c5cnc6ccccc6n5)cn4)cc3C2=O)C(=O)N1` (stereo not drawn) [GS-369, 2-(2,6-Dioxopiperidin-3-yl)-5-(6-(4-(quinoxalin-2-yl)-1H-pyrazol-1-yl)hex-1-yn-1-yl)isoindoline-1,3-dione], the IC50 in assay [1] (setting [3]), in assay [1] (setting [4]), in assay [2] (setting [5]) and in assay [2] (setting [6]) was more than 1000 nM in each case.
Regarding `O=C1CCC(N2C(=O)c3ccc(NCCNc4cccc(N5CCC(c6nccs6)CC5)c4)cc3C2=O)C(=O)N1` (stereo not drawn) [GS-370, 2-(2,6-Dioxopiperidin-3-yl)-5-((2-((3-(4-(thiazol-2-yl)piperidin-1-yl)phenyl)amino)ethyl)amino)isoindoline-1,3-dione], the IC50 in assay [1] (setting [7]), in assay [1] (setting [8]), in assay [2] (setting [9]) and in assay [2] (setting [10]) was less than 10 nM throughout.
As to `O=C1CCC(N2C(=O)c3ccc(NCCCN4CC(n5cc(-c6cnc7ccccc7n6)cn5)C4)cc3C2=O)C(=O)N1` (stereo not drawn) [GS-371, 2-(2,6-Dioxopiperidin-3-yl)-5-((3-(3-(4-(quinoxalin-2-yl)-1H-pyrazol-1-yl)azetidin-1-yl)propyl)amino)isoindoline-1,3-dione], the IC50 was more than 1000 nM in assay [1] (setting [3]), more than 1000 nM in assay [1] (setting [4]), 100 to 1000 nM in assay [2] (setting [5]) and 100 to 1000 nM in assay [2] (setting [6]).
`O=C1CCC(N2C(=O)c3ccc(NCCNc4cccc(N5CCN(c6ccccn6)CC5)c4)cc3C2=O)C(=O)N1` (stereo not drawn) [GS-372, 2-(2,6-Dioxopiperidin-3-yl)-5-((2-((3-(4-(pyridin-2-yl)piperazin-1-yl)phenyl)amino)ethyl)amino)isoindoline-1,3-dione]: the IC50 is 10 to 100 nM in assay [1] (setting [7]), less than 10 nM in assay [1] (setting [8]), less than 10 nM in assay [2] (setting [9]) and less than 10 nM in assay [2] (setting [10]).
On to `O=C1CCC(N2C(=O)c3ccc(NCCNC4CC(n5cc(-c6cnc7ccccc7n6)cn5)C4)cc3C2=O)C(=O)N1` (stereo not drawn) [GS-373, 2-(2,6-Dioxopiperidin-3-yl)-5-((2-((3-(4-(quinoxalin-2-yl)-1H-pyrazol-1-yl)cyclobutyl)amino)ethyl)amino)isoindoline-1,3-dione], for which the IC50 in assay [1] (setting [7]), in assay [1] (setting [8]), in assay [2] (setting [9]) and in assay [2] (setting [10]) was more than 1000 nM each time.
On to `O=C1CCC(N2Cc3cc(CCCCCCn4cc(-c5cnc6ccccc6n5)cn4)ccc3C2=O)C(=O)N1` (stereo not drawn) [GS-374, 3-(1-Oxo-5-(6-(4-(quinoxalin-2-yl)-1H-pyrazol-1-yl)hexyl)isoindolin-2-yl)piperidine-2,6-dione], for which the IC50 in assay [1] (setting [3]) is 100 to 1000 nM; in assay [1] (setting [4]), more than 1000 nM; in assay [2] (setting [5]), more than 1000 nM; in assay [2] (setting [6]), 100 to 1000 nM.
Consider `O=C1CCC(N2Cc3cc(CCCCCCCn4cc(-c5cnc6ccccc6n5)cn4)ccc3C2=O)C(=O)N1` (stereo not drawn) [GS-375, 3-(1-Oxo-5-(7-(4-(quinoxalin-2-yl)-1H-pyrazol-1-yl)heptyl)isoindolin-2-yl)piperidine-2,6-dione], for which the IC50 in assay [1] (setting [3]) was 100 to 1000 nM; in assay [1] (setting [4]) it was 10 to 100 nM; in assay [2] (setting [5]), more than 1000 nM; in assay [2] (setting [6]), 10 to 100 nM.
As to `O=C1CCC(N2C(=O)c3ccc(NCCCCCCn4cc(-c5cnc6cccc(Cl)c6n5)cn4)cc3C2=O)C(=O)N1` (stereo not drawn) [GS-376, 5-((6-(4-(8-Chloroquinoxalin-2-yl)-1H-pyrazol-1-yl)hexyl)amino)-2-(2,6-dioxopiperidin-3-yl)isoindoline-1,3-dione], the IC50 in assay [1] (setting [3]) was 100 to 1000 nM; in assay [1] (setting [4]) it was 10 to 100 nM; in assay [2] (setting [5]) it was more than 1000 nM; in assay [2] (setting [6]), 10 to 100 nM.
Turning to `O=C1CCC(N2C(=O)c3ccc(NCCCCCCn4cc(-c5cnc6cccc(F)c6n5)cn4)cc3C2=O)C(=O)N1` (stereo not drawn) [GS-377, 2-(2,6-Dioxopiperidin-3-yl)-5-((6-(4-(8-fluoroquinoxalin-2-yl)-1H-pyrazol-1-yl)hexyl)amino)isoindoline-1,3-dione], the IC50 in assay [1] (setting [3]) was 100 to 1000 nM; in assay [1] (setting [4]), 10 to 100 nM; in assay [2] (setting [5]) it was more than 1000 nM; in assay [2] (setting [6]), less than 10 nM.
`O=C1CCC(N2Cc3c(NC4CCC(Nc5cccc(N6CCC(n7cc(-c8cnc9ccccc9n8)cn7)CC6)c5)CC4)cccc3C2=O)C(=O)N1` (stereo not drawn) [GS-378, 3-(1-Oxo-4-((4-((3-(4-(4-(quinoxalin-2-yl)-1H-pyrazol-1-yl)piperidin-1-yl)phenyl)amino)cyclohexyl)amino)isoindolin-2-yl)piperidine-2,6-dione]: the IC50 in assay [1] (setting [3]) was 10 to 100 nM; in assay [1] (setting [4]), less than 10 nM; in assay [2] (setting [5]), 10 to 100 nM; in assay [2] (setting [6]) it was less than 10 nM.
Regarding `O=C1CCC(N2C(=O)c3ccc(NCCCCNC(=O)N4CCC(n5cc(-c6cnc7ccccc7n6)cn5)CC4)cc3C2=O)C(=O)N1` (stereo not drawn) [GS-379, N-(4-((2-(2,6-Dioxopiperidin-3-yl)-1,3-dioxoisoindolin-5-yl)amino)butyl)-4-(4-(quinoxalin-2-yl)-1H-pyrazol-1-yl)piperidine-1-carboxamide], the IC50 in assay [1] (setting [3]) is 100 to 1000 nM; in assay [1] (setting [4]), 10 to 100 nM; in assay [2] (setting [5]), more than 1000 nM; in assay [2] (setting [6]), 10 to 100 nM.
On to `Cc1nc(-c2cnc3ccccc3n2)cn1CCCCCCNc1ccc2c(c1)C(=O)N(C1CCC(=O)NC1=O)C2=O` (stereo not drawn) [GS-380, 2-(2,6-Dioxopiperidin-3-yl)-5-((6-(2-methyl-4-(quinoxalin-2-yl)-1H-imidazol-1-yl)hexyl)amino)isoindoline-1,3-dione], for which the IC50 in assay [1] (setting [3]) was more than 1000 nM; in assay [1] (setting [4]), more than 1000 nM; in assay [2] (setting [5]), 100 to 1000 nM; in assay [2] (setting [6]), 100 to 1000 nM.
On to `O=C1CCC(N2C(=O)c3ccc(NCCCCCCn4cc(-c5cnc6cccc(N7CCOCC7)c6n5)cn4)cc3C2=O)C(=O)N1` (stereo not drawn) [GS-381, 2-(2,6-Dioxopiperidin-3-yl)-5-((6-(4-(8-morpholinoquinoxalin-2-yl)-1H-pyrazol-1-yl)hexyl)amino)isoindoline-1,3-dione], for which the IC50 in assay [1] (setting [3]) is more than 1000 nM; in assay [1] (setting [4]), 100 to 1000 nM; in assay [2] (setting [5]), more than 1000 nM; in assay [2] (setting [6]), 10 to 100 nM.
With `O=C1CCC(N2C(=O)c3ccc(NCCCCCCn4cc(-c5cnc6cccc(C7CCOCC7)c6n5)cn4)cc3C2=O)C(=O)N1` (stereo not drawn) [GS-382], the IC50 in assay [1] (setting [3]) was more than 1000 nM; in assay [1] (setting [4]) it was more than 1000 nM; in assay [2] (setting [5]) it was more than 1000 nM; in assay [2] (setting [6]) it was 10 to 100 nM.
Take `CN1CCN(c2cccc3ncc(-c4cnn(CCCCCCNc5ccc6c(c5)C(=O)N(C5CCC(=O)NC5=O)C6=O)c4)nc23)CC1` (stereo not drawn) [GS-383, 2-(2,6-Dioxopiperidin-3-yl)-5-((6-(4-(8-(4-methylpiperazin-1-yl)quinoxalin-2-yl)-1H-pyrazol-1-yl)hexyl)amino)isoindoline-1,3-dione]: the IC50 in assay [1] (setting [3]) is more than 1000 nM; in assay [1] (setting [4]), 100 to 1000 nM; in assay [2] (setting [5]) it was more than 1000 nM; in assay [2] (setting [6]), more than 1000 nM.
Take `O=C1CCC(N2C(=O)c3ccc(NCCCCCCn4cc(-c5cnc6cccc(N7CCNCC7)c6n5)cn4)cc3C2=O)C(=O)N1` (stereo not drawn) [GS-384, 2-(2,6-Dioxopiperidin-3-yl)-5-((6-(4-(8-(piperazin-1-yl)quinoxalin-2-yl)-1H-pyrazol-1-yl)hexyl)amino)isoindoline-1,3-dione]: the IC50 in assay [1] (setting [3]), in assay [1] (setting [4]), in assay [2] (setting [5]) and in assay [2] (setting [6]) was more than 1000 nM each time.

These data come from patent US20240050428A1 (Cullgen (Shanghai), Inc., priority 2020, published 2024).
